The source of these data is patent US12558348B2, “Bioactive phytochemicals” (Phytoquest Limited, priority 2019, dated 2026).

Marks after values point to notes of the source that are not given here.

For one test, the system named is IL-1β. As to the kind of experiment: IL-1β ELISA in LPS stimulated THP-1 cells. It counts as cell-based, human. As to conditions: for % reduction in IL-1 β levels: vs LPS control. The procedure:
The cells in an 80% confluence culture flask were aspirated and centrifuged at 1500 rpm for 5 mins. The cell pellet was then resuspended in 1 ml of RPMI complete media and 1×10^5 cells/well seeded to each well of the 96 well microtiter plate. After 24 hrs incubation, PMA (10 ng/ml) was added to the 96 well plate to differentiate THP-1 cells to determine the TNF-α production, THP-1 cells were pretreated for 1 hr with idoBR1 or cucumber extract-Q-actin (batch no. […] Post incubation, the cell supernatant from each of the wells was aspirated into sterile micro centrifuge tubes and centrifuged at 1000 rpm for 2-3 mins. The cell supernatant was then used for evaluation of presence of cytokines using ELISA.
ELISA plates coated with antibodies for IL-12, IL-1β, or IL-10 (R&D Systems, USA) were used for the following study. To each well 50 μL of Assay Diluent RD1F was added after mixing well. 200 μL of sample (idoBR1 or extract), or control per well was added and covered with an adhesive strip. Following incubation for 2 hours at room temperature each well was aspirated and washed 4 times with Wash Buffer (400 μl). After the last wash, any remaining Wash Buffer was removed by aspirating or decanting. The plates were inverted and blotted against clean paper towels. To each well 200 μl of appropriate human conjugate was added and these then covered with a new adhesive strip and incubated for 1 hour at room temperature. The aspiration/wash was then repeated. 200 μL of Substrate Solution was then added to each well and further incubated for 20 minutes at room temperature protected from light. 50 μL of Stop Solution was added to each well. The colour in the wells was changed from blue to yellow. OD was measured within 30 minutes at 450 nm.
On the technique in general: An ELISA detects its analyte on a solid surface through an enzyme-linked reagent.

The subject of the next test is TNF-α. As to the kind of experiment: LPS-stimulated TNF-α production in human whole blood (ELISA). It counts as cell-based. Particulars: for TNF-α plasma + LPS: 48 h preincubation, LPS 10 μg/ml 20 h. Here is the method: Blood and buffy coat fractions were supplied by the Scottish National Blood Transfusion Service (SNBTS), Glasgow, UK. Ficoll Histopaque (1.077 g/l), Lipopolysaccharide (from Salmonella abortus equi) was purchased from Sigma-Aldrich Co. Ltd. (UK). PGE was from Cayman Chemical Co. (Ann Arbor, MI). Human TNF-α antibody pairs for TNF-α ELISA assays was from Invitrogen/Life Sciences Europe. All drugs were dissolved in RPMI 1640 medium from Gibco BRL, UK.
Blood was used without any further treatment following donation. It was kindly supplied by the Scottish National Blood Transfusion Service from normal healthy donors as defined by ensuring they all tested negative for HIV, hepatitis B & C, CMV and parasitic diseases such as malaria (as tested by the National Blood Transfusion service). They were also confirmed by our laboratory to be free of acute inflammatory disease at the time the blood was taken by measuring the basal level of TNF-α which was always […].
Aliquots (800 μl) of whole blood were incubated with the compound dissolved in RPMI 1640, as indicated in the results, for the appropriate preincubation period after which LPS was added and incubations continued for a further 20 hr at 37° C. in a humidified (100%) atmosphere of 5% CO2 in air. At the end of the incubation period, supernatants from either plasma or culture medium were collected by centrifugation at 10,000 g for 30 seconds at room temperature and TNF-α levels measured using a human TNF-α ELISA system (BioSource Europe S.A., Belgium, supplied by Invitrogen).
Table showing the effect of various idoBR1 concentrations on LPS-stimulated TNF-α production in human blood. Whole blood was preincubated for 48 h with varying concentrations of idoBR1 after which LPS (10 μg/ml) was added and incubations continued for a further 20 h. Following incubation at 37° C. (5% CO2, 100% humidity) plasma was collected from blood by centrifugation and the levels of TNF-α In plasma samples were measured by ELISA.
Table showing the effect of various cucumber extract (0.09% idoBR1) concentrations on LPS-stimulated TNF-α production in human blood. Whole blood was preincubated for 48 h with varying concentrations of cucumber Q-Actin extract after which LPS (10 μg/ml) was added and incubations continued for a further 20 h. Following incubation at 37° C. (5% CO2, 100% humidity) plasma was collected from blood by centrifugation and the levels of TNF-α in plasma samples were measured by ELISA. Values represent the means±s.d. of n=3. * denotes P<0.05 compared to LPS alone.

As a reminder, the IC50 is the concentration that inhibits the measured activity by half. A lower IC50 goes with greater potency in that assay. For the compound `O=C(O)[C@@H]1NC[C@H](O)[C@@H](O)[C@@H]1O` [idoBR1, (2R,3R,4R,5S)-3,4,5-trihydroxypiperidine-2-carboxylic acid], the IL-1β was found to be 133.30 pg/mL in the test with IL-1β (12.5 μg/mL), 127.63 pg/mL in the test with IL-1β (25 μg/mL), 120.36 pg/mL in the test with IL-1β (50 μg/mL) and 111.60 pg/mL with IL-1β (100 μg/mL). The “% reduction in IL-1 β levels” value with IL-1β (12.5 μg/mL) came to 9.31%; in the test with IL-1β (25 μg/mL), 13.17%; in the test with IL-1β (50 μg/mL), 18.12%; with IL-1β (100 μg/mL), 24.07%. Further, in the test with TNF-α, the “effective concentration on LPS-induced TNF-α in human blood” value is on record as “below 10 μM”. Moreover, the “TNF-α plasma + LPS” value with TNF-α (0.01 μM) was 1680 pg/mL; in the test on TNF-α (0.1 μM), 950* pg/ml; in the test on TNF-α (1 μM), 490* pg/ml; in the test on TNF-α (10 μM), 500* pg/ml. Further, the “TNF-α plasma (no LPS)” value with TNF-α (10 μM, no LPS) amounted to 200 pg/mL. In the test with TNF-α (48 hr preincubation, human blood), this compound gave an IC50 of 182 nM. For the same compound, the “concentration with significant activity in human blood” value in the test with TNF-α (second study, with pre-incubation) was 0.01 µM.
